Laboratory results from patent publication US20070129330A1, “1,3-Diaza-dibenzo[e,h]azulenes for the treatment of central nervous system diseases and disorders” (Pliva-Istrazivacki Institut d.o.o., priority 2003, published 2007).

biological target: T1, 5-HT2A receptor (Homo sapiens, UniProt P28223); test: radioligand binding assay for 5-HT2A receptor ([3H]-ketanserin competitive binding); settings: human cortex or recombinant 5-HT2A receptor expressed in CHO-K1 cells, read-out: binding affinity to 5-HT2A serotonin receptor expressed as IC50 value
T1 construct: expressed in transfected cells; host or cells: CHO-K1 (alternatively human cortex tissue)
Experimental: (§1) The effect of the compounds of the present invention on the neurochemical steady state was determined by in vitro investigations such as a radionuclide-marked radioligand binding assay for 5-HT2A (Bonhaus D. W. Br. J. Pharmacol. 1995, 115:622; Saucier C. J. Neurochem. 1997, 68:1998) and 5-HT2C receptors (Wolf W.A. J. Neurochem. 1997, 69:1449), in vitro binding assay for the σ1 receptor (Thomson W. and Donn R. Arthritis Res. 2002, 4: 302-306) and by in vivo investigations in a tail suspension test (Vogel H. G. and Vogel W. H. Drug Discovery and Evaluation Pharmacological Assays, Springer 1997, 304), in amphetamine-induced hyperlocomotion in mice (Millan M. J. et al, 1998 J. Pharmacol. Exp. Ther. 287: 167-186), in a forced swim test in mice (Porsolt R. D. et al. Arch. Int. Pharmacodyn. 1977, 229:327-336), in meta-chlorophenyl piperazine (m-CPP) test on rats (Drug Dev. Res. 1989, 18:119-144), and in apomorphine, tryptamine and norepinephrine (ATN) test in rats (Arch. Int. Pharmacodyn. 1977, 227:238-253).
(§2) A small concentration of a radioligand having a great affinity for binding to a receptor was incubated with a tissue sample enriched with a certain receptor (1-5 mg of tissue) in a buffered medium (0.2-5 mL). Recombinant human HT2A and HT2C receptors were expressed in CHO-K1 or COS-7 cells and were also used for competitive binding. During incubation the radioligand bound to the receptor. When a binding balance was achieved, the receptors to which the radioligand was bound were separated from those to which said ligand was not bound, and the radioactivity of the receptor/radioligand complex was measured. The interaction of the tested compounds with receptors was tested in competitive binding experiments. Various concentrations of tested compounds were added to the incubation mixture containing a prepared tissue enriched with corresponding receptors and the radioligand. The radioligand binding was inhibited by the test compounds proportionally to the affinity of a certain compound for the receptor and to the concentration of the compound.
(§3) The radioligand used for the determination of binding to 5-HT2A receptor was [^3H]-ketanserin and the tissue used was human cortex or recombinant 5-HT2A receptor expressed in CHO-K1 cells. The radioligand used for the determination of binding to 5-HT2C receptor was [^3H]-mesulergine and the tissue used was choroid plexus or recombinant 5-HT2C receptor expressed in CHO-K1 cells.
(§4) It is anticipated that similar results will be observed for other compounds of the invention.

T1 sequence (P28223 whole entry): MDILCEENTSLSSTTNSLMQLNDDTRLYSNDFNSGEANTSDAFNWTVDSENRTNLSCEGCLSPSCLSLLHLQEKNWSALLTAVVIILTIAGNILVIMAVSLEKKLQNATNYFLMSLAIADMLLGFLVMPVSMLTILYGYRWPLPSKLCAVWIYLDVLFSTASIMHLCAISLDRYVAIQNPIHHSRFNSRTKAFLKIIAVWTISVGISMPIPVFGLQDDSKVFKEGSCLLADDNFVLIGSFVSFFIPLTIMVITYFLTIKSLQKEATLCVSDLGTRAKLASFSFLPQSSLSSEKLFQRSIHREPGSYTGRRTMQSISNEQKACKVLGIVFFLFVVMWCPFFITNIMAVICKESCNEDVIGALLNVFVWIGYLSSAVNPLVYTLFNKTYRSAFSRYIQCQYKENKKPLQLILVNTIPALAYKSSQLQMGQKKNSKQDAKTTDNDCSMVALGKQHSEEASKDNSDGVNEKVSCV

| IC50 | SMILES |
| --- | --- |
| < 200 nM | Clc1ccc2c(c1)-c1[nH]cnc1-c1ccccc1O2 [11chloro-1H-8-oxa-1,3-diaza-dibenzo[e,h]azulene] |
| < 200 nM | CN(C)CCCOCc1nc2c([nH]1)-c1cc(Cl)ccc1Sc1ccccc1-2 [[3-(11-chloro-1H-8-thia-1,3-diaza-dibenzo[e,h]azulen-2-ylmethoxy)-propyl]-dimethyl-amine] |
| < 200 nM | CN(C)CCOCc1nc2c(n1C)-c1ccccc1Sc1ccccc1-2 [dimethyl-[2-(1-methyl-1H-8-thia-1,3-diaza-dibenzo[e,h]azulen-2-ylmethoxy)-ethyl]-amine] |
| < 200 nM | CN(C)CCCOc1ccccc1-c1nc2c([nH]1)-c1ccccc1Sc1ccccc1-2 [dimethyl-{3-[2-(1H-8-thia-1,3-diaza-dibenzo[e,h]azulen-2-yl)-phenoxy]-propyl}-amine] |

same assay, conditions: human cortex or recombinant 5-HT2A receptor expressed in CHO-K1 cells, read-out: binding affinity to 5-HT2A serotonin receptor, Ki value

| Ki | SMILES |
| --- | --- |
| < 100 nM | Clc1ccc2c(c1)-c1[nH]cnc1-c1ccccc1O2 [11chloro-1H-8-oxa-1,3-diaza-dibenzo[e,h]azulene] |
| < 100 nM | CN(C)CCCOCc1nc2c([nH]1)-c1cc(Cl)ccc1Sc1ccccc1-2 [[3-(11-chloro-1H-8-thia-1,3-diaza-dibenzo[e,h]azulen-2-ylmethoxy)-propyl]-dimethyl-amine] |
| < 100 nM | CN(C)CCOCc1nc2c(n1C)-c1ccccc1Sc1ccccc1-2 [dimethyl-[2-(1-methyl-1H-8-thia-1,3-diaza-dibenzo[e,h]azulen-2-ylmethoxy)-ethyl]-amine] |
| < 100 nM | CN(C)CCCOc1ccccc1-c1nc2c([nH]1)-c1ccccc1Sc1ccccc1-2 [dimethyl-{3-[2-(1H-8-thia-1,3-diaza-dibenzo[e,h]azulen-2-yl)-phenoxy]-propyl}-amine] |

biological target: T2, 5-HT2C receptor (Homo sapiens, UniProt P28335); test: radioligand binding assay for 5-HT2C receptor ([3H]-mesulergine competitive binding); settings: choroid plexus or recombinant 5-HT2C receptor expressed in CHO-K1 cells, read-out: binding affinity to 5-HT2C serotonin receptor expressed as IC50 value
T2 construct: expressed in transfected cells; host or cells: CHO-K1 (alternatively choroid plexus tissue)
T2 sequence (P28335 33-458): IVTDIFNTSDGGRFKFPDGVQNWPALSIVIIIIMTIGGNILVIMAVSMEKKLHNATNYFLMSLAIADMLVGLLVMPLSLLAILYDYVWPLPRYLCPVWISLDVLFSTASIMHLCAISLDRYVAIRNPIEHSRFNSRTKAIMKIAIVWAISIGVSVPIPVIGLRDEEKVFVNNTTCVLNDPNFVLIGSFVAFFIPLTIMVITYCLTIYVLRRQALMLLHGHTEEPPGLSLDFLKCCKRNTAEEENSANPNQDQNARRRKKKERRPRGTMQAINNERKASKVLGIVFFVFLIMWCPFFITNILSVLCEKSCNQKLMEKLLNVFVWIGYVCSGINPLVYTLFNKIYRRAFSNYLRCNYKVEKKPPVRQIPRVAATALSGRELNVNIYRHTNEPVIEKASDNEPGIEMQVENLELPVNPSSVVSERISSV
Experimental: as §1, §2, §3, §4

| IC50 | SMILES |
| --- | --- |
| < 200 nM | Clc1ccc2c(c1)-c1[nH]cnc1-c1ccccc1O2 [11chloro-1H-8-oxa-1,3-diaza-dibenzo[e,h]azulene] |
| < 200 nM | CN(C)CCCOCc1nc2c([nH]1)-c1cc(Cl)ccc1Sc1ccccc1-2 [[3-(11-chloro-1H-8-thia-1,3-diaza-dibenzo[e,h]azulen-2-ylmethoxy)-propyl]-dimethyl-amine] |
| < 200 nM | CN(C)CCOCc1nc2c(n1C)-c1ccccc1Sc1ccccc1-2 [dimethyl-[2-(1-methyl-1H-8-thia-1,3-diaza-dibenzo[e,h]azulen-2-ylmethoxy)-ethyl]-amine] |
| < 200 nM | CN(C)CCCOc1ccccc1-c1nc2c([nH]1)-c1ccccc1Sc1ccccc1-2 [dimethyl-{3-[2-(1H-8-thia-1,3-diaza-dibenzo[e,h]azulen-2-yl)-phenoxy]-propyl}-amine] |

same assay, conditions: choroid plexus or recombinant 5-HT2C receptor expressed in CHO-K1 cells, read-out: binding affinity to 5-HT2C serotonin receptor, Ki value

| Ki | SMILES |
| --- | --- |
| < 100 nM | Clc1ccc2c(c1)-c1[nH]cnc1-c1ccccc1O2 [11chloro-1H-8-oxa-1,3-diaza-dibenzo[e,h]azulene] |
| < 100 nM | CN(C)CCCOCc1nc2c([nH]1)-c1cc(Cl)ccc1Sc1ccccc1-2 [[3-(11-chloro-1H-8-thia-1,3-diaza-dibenzo[e,h]azulen-2-ylmethoxy)-propyl]-dimethyl-amine] |
| < 100 nM | CN(C)CCOCc1nc2c(n1C)-c1ccccc1Sc1ccccc1-2 [dimethyl-[2-(1-methyl-1H-8-thia-1,3-diaza-dibenzo[e,h]azulen-2-ylmethoxy)-ethyl]-amine] |
| < 100 nM | CN(C)CCCOc1ccccc1-c1nc2c([nH]1)-c1ccccc1Sc1ccccc1-2 [dimethyl-{3-[2-(1H-8-thia-1,3-diaza-dibenzo[e,h]azulen-2-yl)-phenoxy]-propyl}-amine] |
